ChEMBL document CHEMBL1201862, “PubChem BioAssay data set” (2004)
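Five compound concentrations were applied to cells in 96-well plates for 48 hours; endpoints were derived by simple linear interpolation of the resulting dose-response curve. GI50 marks 50% less growth.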 Activity calls are given as the source filed them. No stated cut-off is given here; in the data, active = GI50 up to about 1.1 µM and inactive = higher.

Key:
Assay in all cases: NCI tumour cell line growth inhibition, 48 h
[1] = tested on: SF-295
[2] = tested on: HCT-116
[3] = tested on: UACC-62
[4] = tested on: CAKI-1
[5] = tested on: UACC-257
[6] = tested on: HT-29
[7] = tested on: COLO 205
[8] = tested on: M14
[9] = tested on: LOX IMVI
[10] = tested on: HOP-92
[11] = tested on: BT-549
[12] = tested on: MOLT-4
[13] = tested on: NCI/ADR-RES
[14] = tested on: SR
[15] = tested on: A498
[16] = tested on: MDA-MB-435
[17] = tested on: SK-MEL-28
[18] = tested on: NCI-H460
[19] = tested on: MDA-N
[20] = tested on: SF-539
[21] = tested on: EKVX
[22] = tested on: SNB-19
[23] = tested on: SK-OV-3
[24] = tested on: SNB-75
[25] = tested on: OVCAR-3
[26] = tested on: RXF 393
[27] = tested on: SW-620
[28] = tested on: ACHN
[29] = tested on: HCC 2998
[30] = tested on: OVCAR-5
[31] = tested on: U-251
[32] = tested on: NCI-H23
[33] = tested on: TK-10
[34] = tested on: HL-60
[35] = tested on: PC-3
[36] = tested on: K562
[37] = tested on: SK-MEL-2
[38] = tested on: HOP-62
[39] = tested on: NCI-H522
[40] = tested on: OVCAR-4
[41] = tested on: A549
[42] = tested on: MDA-MB-231
[43] = tested on: SK-MEL-5
[44] = tested on: Malme-3M
[45] = tested on: SN12C
[46] = tested on: T47D
[47] = tested on: MCF7
[48] = tested on: UO-31
[49] = tested on: NCI-H226
[50] = tested on: IGROV-1
[51] = tested on: 786-0
[52] = tested on: KM12
[53] = tested on: Hs-578T
[54] = tested on: HCT-15
[55] = tested on: OVCAR-8
[56] = tested on: SF-268
[57] = tested on: DU-145
[58] = tested on: RPMI-8226
[59] = tested on: CCRF-CEM

## CC(=O)NC1C(OCc2ccccc2)OC(CO)C(O)C1OC(C)C(=O)NC(C(=O)NC(CCC(=O)NCCCCNc1c2ccccc2nc2cccc([N+](=O)[O-])c12)C(N)=O)C(C)C (stereo not given)
[1]
  GI50: 4.99 µM (inactive)
[2]
  GI50: 0.975 µM (active)
[3]
  GI50: 2.09 µM (inactive)
[4]
  GI50: 3.37 µM (inactive)
[5]
  GI50: 3.14 µM (inactive)
[6]
  GI50: 1.14 µM (inactive)
[7]
  GI50: 1.05 µM (active)
[8]
  GI50: 1.62 µM (inactive)
[9]
  GI50: 1.67 µM (inactive)
[10]
  GI50: 1.28 µM (inactive)
[11]
  GI50: 5.97 µM (inactive)
[12]
  GI50: 0.515 µM (active)
[13]
  GI50: 49.2 µM (inactive)
[14]
  GI50: 0.178 µM (active)
[15]
  GI50: 1.84 µM (inactive)
[16]
  GI50: 1.45 µM (inactive)
[17]
  GI50: 2.67 µM (inactive)
[18]
  GI50: 0.887 µM (active)
[19]
  GI50: 1.64 µM (inactive)
[20]
  GI50: 3.3 µM (inactive)
[21]
  GI50: 2.65 µM (inactive)
[22]
  GI50: 4.84 µM (inactive)
[23]
  GI50: 8.73 µM (inactive)
[24]
  GI50: 2.7 µM (inactive)
[25]
  GI50: 2.13 µM (inactive)
[26]
  GI50: 1.56 µM (inactive)
[27]
  GI50: 0.993 µM (active)
[28]
  GI50: 1.97 µM (inactive)
[29]
  GI50: 1.01 µM (active)
[30]
  GI50: 2.71 µM (inactive)
[31]
  GI50: 3.21 µM (inactive)
[32]
  GI50: 1.79 µM (inactive)
[33]
  GI50: 3.1 µM (inactive)
[34]
  GI50: 1.65 µM (inactive)
[35]
  GI50: 2.67 µM (inactive)
[36]
  GI50: 0.458 µM (active)
[37]
  GI50: 2.52 µM (inactive)
[38]
  GI50: 3.15 µM (inactive)
[39]
  GI50: 0.186 µM (active)
[40]
  GI50: 1.24 µM (inactive)
[41]
  GI50: 1.29 µM (inactive)
[42]
  GI50: 2.71 µM (inactive)
[43]
  GI50: 2.22 µM (inactive)
[44]
  GI50: 1.82 µM (inactive)
[45]
  GI50: 1.71 µM (inactive)
[46]
  GI50: 1.82 µM (inactive)
[47]
  GI50: 0.499 µM (active)
[48]
  GI50: 2.89 µM (inactive)
[49]
  GI50: 3.27 µM (inactive)
[50]
  GI50: 2.05 µM (inactive)
[51]
  GI50: 1.81 µM (inactive)
[52]
  GI50: 2.36 µM (inactive)
[53]
  GI50: 8.57 µM (inactive)
[54]
  GI50: 3.21 µM
[55]
  GI50: 1.91 µM (inactive)
[56]
  GI50: 2.99 µM (inactive)
[57]
  GI50: 2.55 µM (inactive)
[58]
  GI50: 0.76 µM (active)

## CC(=O)Nc1nc(Cl)cc(NCC2(CO)CCC2)n1
[1]
  GI50: > 100 µM (inactive)
[2]
  GI50: > 100 µM (inactive)
[3]
  GI50: > 100 µM (inactive)
[4]
  GI50: > 100 µM (inactive)
[5]
  GI50: > 100 µM (inactive)
[6]
  GI50: > 100 µM (inactive)
[7]
  GI50: > 100 µM (inactive)
[8]
  GI50: > 100 µM (inactive)
[9]
  GI50: > 100 µM (inactive)
[10]
  GI50: > 100 µM (inactive)
[11]
  GI50: > 100 µM (inactive)
[12]
  GI50: > 100 µM (inactive)
[13]
  GI50: > 100 µM (inactive)
[14]
  GI50: > 100 µM (inactive)
[15]
  GI50: > 100 µM (inactive)
[16]
  GI50: > 100 µM (inactive)
[17]
  GI50: > 100 µM (inactive)
[18]
  GI50: > 100 µM (inactive)
[19]
  GI50: > 100 µM (inactive)
[21]
  GI50: > 100 µM (inactive)
[22]
  GI50: > 100 µM (inactive)
[23]
  GI50: > 100 µM (inactive)
[24]
  GI50: > 100 µM (inactive)
[25]
  GI50: > 100 µM (inactive)
[26]
  GI50: > 100 µM (inactive)
[27]
  GI50: > 100 µM (inactive)
[28]
  GI50: > 100 µM (inactive)
[29]
  GI50: > 100 µM (inactive)
[30]
  GI50: > 100 µM (inactive)
[31]
  GI50: > 100 µM (inactive)
[32]
  GI50: > 100 µM (inactive)
[59]
  GI50: > 100 µM (inactive)
[34]
  GI50: > 100 µM (inactive)
[35]
  GI50: > 100 µM (inactive)
[36]
  GI50: > 100 µM (inactive)
[37]
  GI50: > 100 µM (inactive)
[38]
  GI50: > 100 µM (inactive)
[39]
  GI50: > 100 µM (inactive)
[40]
  GI50: > 100 µM (inactive)
[41]
  GI50: > 100 µM (inactive)
[42]
  GI50: > 100 µM (inactive)
[43]
  GI50: > 100 µM (inactive)
[44]
  GI50: > 100 µM (inactive)
[45]
  GI50: > 100 µM (inactive)
[46]
  GI50: > 100 µM (inactive)
[47]
  GI50: > 100 µM (inactive)
[48]
  GI50: > 100 µM (inactive)
[49]
  GI50: > 100 µM (inactive)
[50]
  GI50: > 100 µM (inactive)
[51]
  GI50: > 100 µM (inactive)
[52]
  GI50: > 100 µM (inactive)
[53]
  GI50: > 100 µM (inactive)
[54]
  GI50: > 100 µM
[55]
  GI50: > 100 µM (inactive)
[56]
  GI50: > 100 µM (inactive)
[57]
  GI50: > 100 µM (inactive)
[58]
  GI50: > 100 µM (inactive)
